Assay results as given in patent US10822346B2, “Meglumine salts of thienopyrimidines” (Cardurion Pharmaceuticals, LLC, priority 2018, dated 2020).

Tests used:
[1] = Solid form stability on drying under vacuum; type: physicochemical; details: crystalline salts; crystal form after drying
Description: (§1) Initial studies identified thienopyrimidine carboxylic acids as PDE9 inhibitors which could be used to treat or prevent HF. […] In further studies, the potassium salt was identified as a candidate for formulation because it was soluble, provided high exposure in preclinical toxicology studies, and was relatively easy to scale up. […] Unexpectedly the monohydrate crystalline meglumine salt of the thienopyrimidine compounds afforded the desired properties for a pharmaceutical formulation, as shown in Table 5.

[2] = Hygroscopicity by Dynamic Vapor Sorption; type: physicochemical; details: for Hygroscopicity: DVS weight gain: Dynamic Vapor Sorption @ 25° C./95% RH
Description: as §1

[3] = Dog pharmacokinetic study; type: in vivo, dogs; details: for AUClast / Cmax / Tmax: healthy dogs, N = 4 animals/arm, fasted overnight, pentagastrin 30 min prior to dosing, mean plasma profile
Experimental: Healthy dogs were used to study different salt candidates to evaluate the pharmacokinetic profile of each candidate. Six treatment arms were employed:
Animals were fasted overnight with free access to water. Pentagastrin (PG) (6 μg/kg, IM) was administered 30 min prior to dosing. Food was resumed 4 h post dose.

[4] = Exposure in preclinical toxicology studies; details: in vivo
Description: as §1

[5] = Solubility in pharmaceutically acceptable formulation; type: physicochemical; details: in any pharmaceutically acceptable formulation
Description: as §1

| Solubility (in words) [5] | SMILES | Stability: Drying under vaccum @50 for 36 hrs [1] | Hygroscopicity: DVS weight gain [2] | AUClast [3] [ng·h/mL] | Cmax [3] [ng/mL] | Tmax [3] [h] | Exposure in preclinical toxicology studies (in words) [4] | Hygroscopicity (in words) [2] | Pharmacokinetic profile (in words) ([3]; dogs, compared with other salts) | Exposure compared with free acid and potassium salt dosed as solutions (in words) ([3]; dogs, powder in a capsule (PIC)) |
| --- | --- | --- | --- | --- | --- | --- | --- | --- | --- | --- |
| soluble | [K+] [Potassium] | changes | 8-22.5% | 966 | 398 | 1.25 | high exposure | – | – | – |
| – | Cc1c(C(=O)O)sc2nc(Cc3ccc(Cl)c(Cl)c3)[nH]c(=O)c12.N=C(N)NCCC[C@H](N)C(=O)O [compound 8, arginine 2-(3,4-dichlorobenzyl)-5-methyl-4-oxo-3,4-dihydrothieno[2,3-d]pyrimidine-6-carboxylate] | changes | 5.9% | 705 | 246 | 1.38 | – | – | – | – |
| – | CNCC(O)C(O)C(O)C(O)CO.Cc1c(C(=O)O)sc2nc(Cc3ccc(Cl)c(Cl)c3)[nH]c(=O)c12.O [compound 4, meglumine 2-(3,4-dichlorobenzyl)-5-methyl-4-oxo-3,4-dihydrothieno[2,3-d]pyrimidine-6-carboxylate monohydrate] | unchanged | 0.7% | 1008 | 280 | 1.13 | – | low hygroscopicity | superior pharmacokinetic profile | comparable exposure |
| – | Cc1c(C(=O)O)sc2nc(Cc3ccc(Cl)c(Cl)c3)[nH]c(=O)c12.NCCCC[C@H](N)C(=O)O [compound 9, lysine 2-(3,4-dichlorobenzyl)-5-methyl-4-oxo-3,4-dihydrothieno[2,3-d]pyrimidine-6-carboxylate] | changes | 6.4% | 495 | 78.4 | 3.50 | – | – | – | – |
